The test system of series [1] is skin MC. Nature of the series: Cellular localization by immunohistochemistry with anti-C60 fullerene Ab. The format is cell-based, human. Conditions: 4 hours incubation; Polyhydroxy C60 10 ng/ml, N-ethyl-polyamino C60 0.1 μg/ml; FIG. 4. Here is the method: Skin MC (a-d) or PBB (e, f) were incubated with Polyhydroxy C60 (10 ng/ml; a, b, c, f) or N-ethyl-polyamino C60 (0.1 μg/ml; d, f) for 4 hours, washed and cytocentrifuged onto slides. The cytocentrifuge preparations were incubated with anti-C60 fullerene Abs (c, d, e, f) or with an isotype-matched control (a, b) overnight. The cytospins were washed and incubated with a 1:50 dilution of peroxidase-conjugated, anti-mouse Abs and developed with AEC as described. Photographs a and b are the same field taken under phase-contrast (a) or light (b) at a magification of 400×. Pictures c-f were taken under light at a magification of 1000×.
To access the cellular localization if the fullerenes within human MC, these cells were incubated with the water soluble fullerenes and immunohistochemistry was assessed using a fullerene-specific antibody Ab (59;60).

In series [2] the test system is PBB. In words: Cellular ROS levels after antigen challenge (DCF dye, FACS). In kind it is cell-based, human. Conditions: preincubation, then NIP-BSA 100 ng/ml for 30 min; FIG. 5. Here is the method: (§1) Skin MC (grey) or PBB (white) were sensitized overnight with anti-NIP-IgE (1 μg/ml). Cells were activated for 30 min with NIP-BSA (100 ng/ml) with or without preincubation with the indicated concentrations of fullerenes or N-acetyl-L-cysteine (NAC; 10 μmol). Cellular ROS levels were detected by incubating the cells in the ROS indicating dye 5-(and-6)-carboxy-2′,7′-dichlorodihydrofluorescein diacetate (DCF) followed by FACS analysis. The results are representative of 3 separate MC or PBB cultures. The * or # indicates statistically significant changes in ROS levels for MC and PBB, respectively (p<0.05). A, polyhydroxy C60 fullerenes; B, N-ethyl-polyamine C60 fullerenes.
(§2) To investigate the mechanism by which these fullerenes inhibit allergic mediator release from skin MC and PBB, the effect these compounds have on ROS levels within the cell after antigen stimulation was tested.

Series [3] relates to skin MC. The description is as above. In kind it is cell-based, human. The conditions noted are these: preincubation, then NIP-BSA 100 ng/ml for 30 min; FIG. 5. Here is the method:
as §1, §2

For another series, the system named is IgE-DNP-sensitized mice. Nature of the series: IgE-induced systemic anaphylaxis in vivo. The conditions noted are these: intravenously (50 ng/ml) overnight before DNP-BSA challenge; FIG. 6. Here is the method: FIG. 6. […] Mice (3-5 per group; n=2 separate experiments) were sensitized with or without (Δ) DNP-IgE overnight. The mice were then given vehicle alone (▪) or fullerenes (▾=Poly C60; ●=N-ethyl C60) intravenously (50 ng/ml) overnight. The next morning the animals were challenged with DNP-BSA (100 μg/ml) and the core body temperature measured for up to 30 minutes. Serum histamine levels were measured by ELISA. A, data represented with line graphs; B, data represented with bar graphs.
Systemic anaphylaxis is predominately driven by the activation of MC and PBB through IgE-FceRI crosslinking (45;61). […] Thus, we hypothesized that they could inhibit MC and PBB-induced anaphylaxis in vivo using IgE-sensitized mice. […] In addition, there was a significant reduction in serum histamine levels with the fullerene preincubation.
To test inhibition of mouse anaphylaxis, mice are injected intraperitoneally (IP) with 50 μg of DNP-specific IgE. After approximately 4 to 6 hours the mice (triplicate) are injected with or without different concentrations of fullerenes. The next day cells are injected IP with DNP-HSA (100 μg, Sigma-Aldrich). […] After 30 minutes, mice are sacrificed, and cardiac puncture is used to obtain plasma, from which histamine and other mediators are measured by ELISA. […]

For series [4], the system named is skin MC.
Experimental: (§3) A bar graph illustrating the effects of fullerenes on skin MC and PBB viability Cells were cultured with (poly; white bars, N-ethyl; striped bars) or without (black bars) fullerenes (10 mg/ml) for the indicated times. Cells were washed and viability assessed by trypan blue exclusion. Results are representative of 3 experiments from different donors.
(§4) The effects of water soluble fullerene derivatives (Poly; polyhydroxy C60 and N-ethyl; N-ethyl-polyamino C60) on cell growth and viability were tested. Cells were incubated for up to 72 hours and total cell numbers were assessed along with trypan blue exclusion.
In series [5] the test system is PBB.
Experimental: as §3, §4

N-ethyl-polyamino C60: the “cellular localization of fullerenes” value in the series with skin MC [1] is given as “localize within the cytoplasm of MC”. The “cellular ROS levels” value with PBB [2] and with skin MC [3] was “inhibit ROS production” in each case. In addition, the IgE-induced anaphylaxis result in the series with IgE-DNP-sensitized mice was “inhibit IgE-induced anaphylaxis”. The total cell numbers entry in the series on skin MC [4] and in the series with PBB [5] was “None of the fullerenes demonstrated a significant affect” throughout.
polyhydroxy C60: the “cellular localization of fullerenes” value in the series on skin MC [1] was “localize within the cytoplasm of MC”. The “cellular ROS levels” value with PBB [2] and with skin MC [3] was “inhibit ROS production” each time. In the series with IgE-DNP-sensitized mice, the IgE-induced anaphylaxis entry is listed as “inhibit IgE-induced anaphylaxis”. Also, the total cell numbers entry with skin MC [4] and in the series on PBB [5] was “None of the fullerenes demonstrated a significant affect” each time.

Source of the values: US7947262B2, “Use of fullerenes for the treatment of mast cell and basophil-mediated disease” (Virginia Commonwealth University, priority 2006, dated 2011).
